Data set [1] can be described thus: Headspace volatilization of secondary metabolites by GCMS. Format: physicochemical. The note with it: share of total peak area. As for the experimental part:
In this study, a liquid fumigant pesticide formulation was prepared as follows: • (1) Base formula: rosemary oil (5 ml) • (2) Enhancement formula: rosemary oil high quality (0.5 ml); clove oil (0.05 ml); peppermint oil (0.075 ml) • (3) Carrier solvent: isopropyl alcohol (6 ml); isopropyl myristate (0.06 ml). Blending: • 3. The required amounts of base formula ingredients were drawn from individual stocks of chemicals via a laboratory pipette and were transferred into a 40 ml GC glass vial (2.5 cm diameter by 10 cm length) with a silicon septa. The tall vial was used to minimize surface area of liquid that is exposed to the air during preparation. The chemicals were added quickly (less than 10 second to transfer each chemical) in order to minimize exposure to air. Following the same instruction, the enhancement formula was prepared and added to the same vial. • 4. The carrier solvent was then poured over the base formula and enhancement formula inside the vial. The vial was closed immediately after the solvent was added. The base formula, enhancement formula and carrier solvent were mixed using a lab shaker for 15 seconds.
A sub-sample of the fumigant pesticide composition (0.5 ml) was placed inside a 1 ml GC vial. Three commercial samples of rosemary oil was also placed inside three separate 1 mL GC vials. Headspace volatilization of secondary metabolites from these four samples were compared using a gas chromatograph mass spectrometer (GCMS). The GCMS was programmed to only collect samples from the headspace above the liquid mixture of the chemicals in the vials. […] The GCMS was a Varian 3900 system with a Saturn 2100T ion trap mass-selective detector (Varian Inc., Walnut Creek, Calif.). The inventors used a WCOT fused silica 30 m Å˜0.25 mm i.d. column with a CP-Sil 8 CB low bleed MS coating (Varian Inc.), a 1 μL injection volume and pure helium as the carrier at 1.0 ml min-1. The temperature program used was 80° C. for 0.5 min, an increase of 8.0 $ Cmin-1 for 8.0 min, followed by an increase of 50° C. min-1 for 3.2 min. Cinnamic alcohol (Sigma, St Louis, Mo., USA) was used as an internal standard.

A short description of data set [2]: Volatilization monitoring by ultra-fast gas chromatograph inside empty moving box. Format: physicochemical. Particulars: from fumigant pesticide composition prototype, empty medium size box, 60-150 min and 23 h after closing. How it is done:
The volatilization of the prototype of the fumigant pesticide composition was monitored inside empty moving boxes. […] Ten mL of the fumigant pesticide composition prototype was placed inside a 40 mL GC vial.
Volatile monitoring was performed at two steps. Step one started 60 minutes after the box was closed and volatile samples were collected every 5-minutes for 90 minutes. The second step started 23 hours after the box was closed and samples were collected every 5-minutes for 50 minutes.

Setting [3] is: Commercial rosemary oil sample one.
Setting [4] is: Commercial rosemary oil sample two.
Setting [5] is: Commercial rosemary oil sample three.
The mark [6] stands for this setting: Pesticide fumigant formula of the present invention (0.5 ml in 1 ml GC vial).

“And” between values parts separate entries of the source, which are not always exact repeats. Equal values may be shown once.

Consider `CC1=CCC2C(C1)C2(C)C` (centres unmarked) [3-Carene], for which the “% of secondary metabolite in headspace” value in data set [1] (setting [3]) was determined as 1.88%.
For the compound `C=C(C)[C@H]1CC=C(C)CC1` [D-Limonene], the “% of secondary metabolite in headspace” value in data set [1] (setting [4]) turned out to be 4.67%. Further, the pattern of volatilization result in data set [2] is on record as “Fluctuation pattern with increasing levels at the tail end”.
As for `CC1(C)C2CCC1(C)C(O)C2` (centres unmarked) [Borneol], the “% of secondary metabolite in headspace” value was 4.06% in data set [1] (setting [3]), 1.68% in data set [1] (setting [5]) and 3.60% in data set [1] (setting [4]).
For `CC12CCC(CC1)C(C)(C)O2` [1,8-Cineole], the “% of secondary metabolite in headspace” value in data set [1] (setting [3]) was 57.05%; in data set [1] (setting [5]) it was 36.95%; in data set [1] (setting [4]), 21.53%; in data set [1] (setting [6]) it was 46.78%. Besides, in data set [2], the pattern of volatilization entry is reported as “Unstable pattern with greater fluctuation at the end of trial”.
In the case of `CC(C)=CCC/C(C)=C/CO` [geraniol], the pattern of volatilization entry in data set [2] is listed as “Steady compounds”.
On the same count and under the same terms, the entry for `C=CC(C)(O)CCC=C(C)C` (centres unmarked) [linalool] is “Steady compounds”.
For the compound `CC1=CC[C@@H](C(C)(C)O)CC1` [a-Terpineol], in data set [1] (setting [5]), the “% of secondary metabolite in headspace” value is listed as 2.48%.
For `C=C1CCC2CC1C2(C)C` (centres unmarked) [b-pinene], the “% of secondary metabolite in headspace” value in data set [1] (setting [3]) was determined as 8.00%; in data set [1] (setting [5]), 6.22%; in data set [1] (setting [4]) it was 5.43%; in data set [1] (setting [6]) it was 5.35%. The pattern of volatilization result in data set [2] was “Complete inhibition pattern”.
As to `CC1(C)[C@@H]2CC[C@@]1(C)[C@H](O)C2` [Isoborneol], the entries for the “% of secondary metabolite in headspace” value in data set [1] (setting [3]) and in data set [1] (setting [4]) were 1.74% and 2.28%, respectively.
As to `CC(=O)OC(C)C` [Isopropyl acetate], the “% of secondary metabolite in headspace” value in data set [1] (setting [4]) amounted to 3.25%.
On to `C=CCc1ccc(O)c(OC)c1` [Eugenol], for which the pattern of volatilization result in data set [2] is “Unstable pattern with greater fluctuation at the end of trial”.
With `CC12CCC(CC1=O)C2(C)C` (centres unmarked) [Camphor], the “% of secondary metabolite in headspace” value in data set [1] (setting [3]) came to 11.89%; in data set [1] (setting [5]) it was 18.60%; in data set [1] (setting [4]), 25.50%; in data set [1] (setting [6]) it was 23.30%. The pattern of volatilization entry in data set [2] was “Fluctuation pattern with increasing levels at the tail end”.
Take `C=C1C2CCC(C2)C1(C)C` (centres unmarked) [Camphene]: the “% of secondary metabolite in headspace” value in data set [1] (setting [3]) was 4.26%; in data set [1] (setting [5]) it was 10.06% and 4.72%; in data set [1] (setting [4]), 13.04%; in data set [1] (setting [6]), 9.98%. The pattern of volatilization result in data set [2] was “Fluctuation pattern with increasing levels at the tail end”.
In the case of `Cc1ccc(C(C)C)cc1` [p-Cymene], the “% of secondary metabolite in headspace” value in data set [1] (setting [3]) stood at 1.89%; in data set [1] (setting [5]) it was 2.01%; in data set [1] (setting [4]), 2.56%. Further, the pattern of volatilization entry in data set [2] is “Fluctuation pattern with increasing levels at the tail end”.
Take `CC1=CCC2CC1C2(C)C` (centres unmarked) [a-pinene]: the “% of secondary metabolite in headspace” value is reported as 6.53% in data set [1] (setting [3]), 14.73% in data set [1] (setting [5]), 18.15% in data set [1] (setting [4]) and 14.58% in data set [1] (setting [6]). The pattern of volatilization entry in data set [2] is “Complete inhibition pattern”.
As for `CC(=O)OC1CC2CCC1(C)C2(C)C` (centres unmarked) [Bornyl Acetate], the “% of secondary metabolite in headspace” value in data set [1] (setting [3]) is 2.70%; in data set [1] (setting [5]), 2.54%.
